The target in this test is T1, SARM1 (50-724) (Homo sapiens, UniProt Q6SZW1).
T1 sequence (Q6SZW1 50-724): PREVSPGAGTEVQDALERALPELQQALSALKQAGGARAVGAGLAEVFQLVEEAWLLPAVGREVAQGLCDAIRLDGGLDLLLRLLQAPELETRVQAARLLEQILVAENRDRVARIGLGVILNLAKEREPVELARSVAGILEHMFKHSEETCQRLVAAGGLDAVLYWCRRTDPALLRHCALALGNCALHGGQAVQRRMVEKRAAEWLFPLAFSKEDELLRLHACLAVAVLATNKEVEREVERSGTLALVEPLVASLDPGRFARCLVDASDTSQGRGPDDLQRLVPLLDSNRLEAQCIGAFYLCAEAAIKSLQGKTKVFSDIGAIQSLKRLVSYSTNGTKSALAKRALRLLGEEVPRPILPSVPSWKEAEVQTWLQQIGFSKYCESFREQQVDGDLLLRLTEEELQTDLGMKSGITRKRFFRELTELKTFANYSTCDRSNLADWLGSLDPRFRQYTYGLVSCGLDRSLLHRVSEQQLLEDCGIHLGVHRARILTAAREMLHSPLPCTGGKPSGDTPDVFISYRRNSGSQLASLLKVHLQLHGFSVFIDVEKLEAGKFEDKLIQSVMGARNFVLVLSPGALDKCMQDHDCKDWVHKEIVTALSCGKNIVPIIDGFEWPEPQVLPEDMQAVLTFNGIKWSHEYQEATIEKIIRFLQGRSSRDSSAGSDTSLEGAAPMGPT
The test can be described thus: biochemical.

Structures are written as SMILES.

Procedure: An enzymatic assay was performed in a 384-well plate using Dulbecco's phosphate-buffered saline (PBS) as the reaction buffer. […] The reaction was initiated by adding a mixture of 200 μM nicotinamide mononucleotide (NMN) as activator and 100 μM NAD^+ as substrate. After 1 h of incubation at room temperature, the reaction was terminated with 10 times volume of 70% acetonitrile, then centrifuged at 3800 rpm for 10 min.

The term IC50 denotes the concentration at which inhibition is half-maximal. In the case of `CCC1CCCCN1S(=O)(=O)Nc1ccc2c(c1)C(=O)NCC2` (racemic) [Compound 48, 2-ethyl-N-(1-oxo-1,2,3,4-tetrahydroisoquinolin-7-yl)piperidine-1-sulfonamide], the concentration for half-maximal inhibition (IC50) is over 1000 nM.

`CC(Nc1ccc2c(C(F)F)n(CC(N)=O)nc2c1)c1c(F)ccc(Cl)c1Cl` (racemic) [Compound 365, 2-(6-((1-(2,3-dichloro-6-fluorophenyl)ethyl)amino)-3-(difluoromethyl)-2H-indazol-2-yl)acetamide] yielded an IC50 of under 100 nM.

With `CC1(C)CN(S(N)(=O)=O)c2cc(NS(=O)(=O)c3cccc(Cl)c3Cl)ccc21` [Compound 319, 6-((2,3-dichlorophenyl)sulfonamido)-3,3-dimethylindoline-1-sulfonamide], the 50% inhibitory concentration (IC50) was under 100 nM.

In turn, `CC(Nc1cc(F)c2ncn(C3CC(O)C3)c(=O)c2c1)c1cncc(Cl)c1Cl` (mixture of isomers) [Compound 348, 6-((1-(4,5-dichloropyridin-3-yl)ethyl)amino)-8-fluoro-3-(3-hydroxycyclobutyl)quinazolin-4(3H)-one] registered an IC50 of under 100 nM.

As for `Cc1n[nH]c(=O)c2cc(NC(C)c3scc(Cl)c3Cl)ccc12` (racemic) [Compound 342, 7-((1-(3,4-dichlorothiophen-2-yl)ethyl)amino)-4-methylphthalazin-1(2H)-one], the IC50 is under 100 nM.

With `CC(Nc1ccc2nc[nH]c(=O)c2n1)c1ccc(F)c(Cl)c1Cl` (racemic) [Compound 384, 6-((1-(2,3-dichloro-4-fluorophenyl)ethyl)amino)pyrido[3,2-d]pyrimidin-4(3H)-one], the half-maximal inhibitory concentration (IC50) was 100 to 500 nM.

In the case of `CC1CN(S(=O)(=O)Nc2ccc3c(c2)C(=O)NCC3)CC(C)O1` (stereo not drawn) [Example 165, 2,6-dimethyl-N-(1-oxo-1,2,3,4-tetrahydroisoquinolin-7-yl)morpholine-4-sulfonamide], the IC50 was over 1000 nM.

In the case of `CC1(C)C(=O)Nc2cc(NC(CCO)c3nc(Cl)c(Cl)s3)ccc21` (racemic) [Example 292, 6-((1-(4,5-dichlorothiazol-2-yl)-3-hydroxypropyl)amino)-3,3-dimethylindolin-2-one], the IC50 is under 100 nM.

As to `CC1(C)CN(C(=O)CC(N)=O)c2cc(NS(=O)(=O)c3cccc(Cl)c3Cl)ccc21` [Compound 299, 3-(6-((2,3-dichlorophenyl)sulfonamido)-3,3-dimethylindolin-1-yl)-3-oxopropanamide], the IC50 is under 100 nM.

Compound `Cc1c(F)cccc1S(=O)(=O)Nc1cccc(-c2cnn(C)c2)c1` [Example 161, 3-fluoro-2-methyl-N-(3-(1-methyl-1H-pyrazol-4-yl)phenyl)benzenesulfonamide] yielded an IC50 of over 1000 nM.

For `CC(Nc1ccc2c(c1)c(C(N)=O)nn2C)c1nc(Cl)c(Cl)s1` (racemic) [Compound 310, 5-((1-(4,5-dichlorothiazol-2-yl)ethyl)amino)-1-methyl-1H-indazole-3-carboxamide], the IC50 is under 100 nM.

`Cc1c2ccc(NC(C)c3nc(Cl)c(Cl)s3)cc2nn1CC(N)=O` (racemic) [Compound 312A, 2-(6-((1-(4,5-dichlorothiazol-2-yl)ethyl)amino)-3-methyl-2H-indazol-2-yl)acetamide] gave an IC50 of under 100 nM.

Compound `CCC(C(N)=O)c1ccc(NS(=O)(=O)c2cccc(Cl)c2Cl)cc1` (single isomer, unassigned) [Compound 270] registered an IC50 of under 100 nM.

The compound `Cc1cc(F)cc(C(CO)Oc2ccc3c(c2)C(=O)NCC3)c1` (stereo not drawn) [Example 176, 7-(1-(3-fluoro-5-methylphenyl)-2-hydroxyethoxy)-3,4-dihydroisoquinolin-1(2H)-one] had an IC50 of over 1000 nM.

For the compound `CC(Nc1ccc2cc[nH]c(=O)c2n1)c1cc(F)cc(Cl)c1Cl` (racemic) [Example 205, 2-((1-(2,3-dichloro-5-fluorophenyl)ethyl)amino)-1,7-naphthyridin-8(7H)-one], the IC50 was under 100 nM.

These data come from US20250320184A1 (SIRONAX LTD., priority 2022, published 2025).
